Measurements taken from patent publication US8420657B2 (Novartis AG, priority 2008, dated 2013).

Columns and labels:
[1] = test system: JAK1/JAK2-dependent nuclear translocation of STAT1-GFP in HT1080 fibrosarcoma cells; assay: STAT1 nuclear translocation assay (Cellomics), IFN-γ stimulated HT1080 STAT1-GFP cells; type: cell-based; conditions: Homo sapiens, HT-1080, STAT1 translocation pathway
Source text: The medium-throughput (96-well format) cellular automated fluorescence microscopy Cellomics assay can be routinely used to assess the functional activation of Janus Kinases (JAKs), based on the nuclear translocation of their substrate, Signal Transducer and Activator of Transcription (STAT). Nuclear translocation can be monitored either in HT1080 fibrosarcoma cells stably transfected with STAT1 fused to Green Fluorescence Protein (GFP) or in U-2 OS osteosarcoma cells stably transfected with STAT5 fused to Green Fluorescence Protein (GFP). Stimulation of HT1080 cells with interferon-γ (IFN-γ) results in JAK1/JAK2-dependent nuclear translocation of STAT1-GFP, whereas stimulation of U-2 OS cells with recombinant human erythropoietin (rhEpo) results in JAK2-dependent nuclear translocation of STAT5-GFP, both of which can be quantified using the Cellomics Cyto/NucTrans software package. This assay may be used to provide an assessment of the nuclear-cytoplasmic differential (NCD) of STAT-GFP using Hoechst dye to define the boundaries of the nucleus.
HT1080 fibrosarcoma cells may be obtained from ATCC and can be cultured in alpha Modified Eagle Medium with 10% FCS. Cells can be transfected with pEGFP-N2 STAT1 using Fugene 6 Transfection Reagent following the manufacturers' protocol. 24 hours after transfection the medium can be replaced and selected in 1 mg/ml Geneticin.
Compounds can be dissolved in DMSO to a final stock concentration of 10 mM and stored as aliquots at 4° C. Compounds may be pre-diluted in 100% DMSO at 10 mM, 3 mM 1 mM, 0.3 mM, 0.1 mM, 0.03 mM, 0.01 mM and 0.003 mM. Subsequently, compounds may be diluted in medium and added in 50 μl to the cells. The final compound concentrations tested may be 10 μM, 3 μM 1 μM, 0.3 μM, 0.1 μM, 0.03 μM, 0.01 μM and 0.003 μM and the final DMSO concentration can be 0.1%.
HT1080 STAT1-GFP cells may be seeded at a density of 10,000 cells per well in clear-bottom black 96-well Packard View-Plates™. 16-24 hours later, the cells can be treated for 2 hours with 100 ng/ml IFN-γ, washed twice in pre-warmed PBS and fixed in 200 μl of pre-warmed fixation solution (PBS, 3.7% Formaldehyde) for 10 minutes. The plates may be washed twice in 200 μl PBS and incubated, protected from light, in 100 μl of DNA-staining solution (PBS, 0.5 μg/ml Hoechst-33342) for 1 minute. The plates may then be washed once in PBS, and 200 μl PBS finally added per well. The plates, being finally covered with a black adhesive, may be either read directly or stored at 4° C. for later imaging. Where appropriate, the compounds may be added 30 min before stimulation with IFN-γ.
The plates can be read on a Cellomics® ArrayscanII automated fluorescence microscope plate reader equipped with a Mercury-Xenon white light illumination source and a Zeiss Axiovert inverted microscope, using the XF100 dichroic/emission filter cube and matching excitation filters, 10× magnification, and a 0.3 numerical aperture objective. Image acquisition and analysis can be performed using a customized protocol based on the ‘NuclearTranslocation’ Bioapplication. For each well, multiple images (fields) can be acquired until a minimum of 1000 cells are counted using two 2 channels: Channel 1 (Hoechst)=focus+nuclear mask, Channel 2 (GFP)=signal quantification in mask areas as outlined below. Nuclei may be first identified based on the Hoechst staining and a mask generated for each nucleus that then serves as a template to generate a circle (eroded inwards by 1 pixel) and a 3 pixel-wide collar-like ring (off-set outwards by 1 pixel), in which the nuclear and cytoplasmic intensity of GFP, respectively, are quantified in the corresponding channel. High content analysis yields numerous measurements per cell and the GFP intensity differential between the nuclear and the cytoplasmic masks may be chosen as a measure of sub-cellular STAT-GFP relocation. The resulting values may be averaged for all cells in the well to return a single measurement plus standard deviation. […]

GST-JAK2(808-1132) = target: T1, GST-JAK2(808-1132) (Homo sapiens, UniProt O60674); assay: JAK2 kinase assay (Caliper mobility shift, LabChip 3000); type: biochemical
T1 construct: GST-JAK2(808-1132); purchased Invitrogen (Carlsbad, USA) #4288
T1 sequence (O60674 808-1132): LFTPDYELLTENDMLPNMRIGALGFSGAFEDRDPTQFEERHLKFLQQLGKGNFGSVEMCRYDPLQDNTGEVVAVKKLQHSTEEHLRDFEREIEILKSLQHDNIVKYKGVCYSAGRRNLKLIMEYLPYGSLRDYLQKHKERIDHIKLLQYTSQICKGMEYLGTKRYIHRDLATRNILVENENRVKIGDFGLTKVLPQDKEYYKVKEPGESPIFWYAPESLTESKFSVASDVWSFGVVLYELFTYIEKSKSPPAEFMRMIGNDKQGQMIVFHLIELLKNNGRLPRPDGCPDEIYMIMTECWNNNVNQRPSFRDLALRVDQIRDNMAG
Summary of the method: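 Recombinant GST-JAK2(808-1132) kinase domain with FITC-labelled JAK3tide peptide substrate and ATP; 60 min at 30 °C, EDTA stop. Substrate/product ratio read by microfluidic mobility shift; compounds at 8 final concentrations, 10 to 0.003 μM.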

SMILES | IC50 [1] | IC50 (GST-JAK2(808-1132))
CN1CCN(C(=O)c2cccc(Nc3ncc4ccn(-c5ccc(S(C)(=O)=O)cc5)c4n3)c2)CC1 [Example 39, {3-[7-(4-Methanesulfonyl-phenyl)-7H-pyrrolo[2,3-d]pyrimidin-2-ylamino]-phenyl}-(4-methyl-piperazin-1-yl)-methanone] | 1370 nM | 14 nM
CN(C)CCNC(=O)c1ccc(Nc2ncc3ccn(-c4ccc(S(C)(=O)=O)cc4)c3n2)cc1 [Example 40, N-(2-Dimethylamino-ethyl)-4-[7-(4-methanesulfonyl-phenyl)-7H-pyrrolo[2,3-d]pyrimidin-2-ylamino]-benzamide] | 155 nM | < 3 nM
CS(=O)(=O)c1ccc(-n2ccc3cnc(Nc4cccc(CN5CCCCC5)c4)nc32)cc1 [Example 41, [7-(4-Methanesulfonyl-phenyl)-7H-pyrrolo[2,3-d]pyrimidin-2-yl]-(3-piperidin-1-ylmethyl-phenyl)-amine] | 75 nM | < 3 nM
CS(=O)(=O)c1ccc(-n2ccc3cnc(Nc4ccc(CN5CCCCC5)cc4)nc32)cc1 [Example 42, [7-(4-Methanesulfonyl-phenyl)-7H-pyrrolo[2,3-d]pyrimidin-2-yl]-(4-piperidin-1-ylmethyl-phenyl)-amine] | 170 nM | 3.1 nM
CS(=O)(=O)c1ccc(-n2ccc3cnc(Nc4ccc(Cn5ccnc5)cc4)nc32)cc1 [Example 43, (4-Imidazol-1-ylmethyl-phenyl)-[7-(4-methanesulfonyl-phenyl)-7H-pyrrolo[2,3-d]pyrimidin-2-yl]-amine] | 350 nM | < 3 nM
CS(=O)(=O)c1ccc(-n2ccc3cnc(Nc4ccc(CN5CCOCC5)cc4)nc32)cc1 [Example 44, [7-(4-Methanesulfonyl-phenyl)-7H-pyrrolo[2,3-d]pyrimidin-2-yl]-(4-morpholin-4-ylmethyl-phenyl)-amine] | 142 nM | < 3 nM
CS(=O)(=O)c1ccc(-n2ccc3cnc(Nc4cccc(Cn5ccnc5)c4)nc32)cc1 [Example 47, (3-Imidazol-1-ylmethyl-phenyl)-[7-(4-methanesulfonyl-phenyl)-7H-pyrrolo[2,3-d]pyrimidin-2-yl]-amine] | 73 nM | < 3 nM
CN(C)CCN(C(=O)c1cccc(Nc2ncc3ccn(-c4ccc(S(C)(=O)=O)cc4)c3n2)c1)c1ccccc1 [Example 48, N-(2-Dimethylamino-ethyl)-3-[7-(4-methanesulfonyl-phenyl)-7H-pyrrolo[2,3-d]pyrimidin-2-ylamino]-N-phenyl-benzamide] | 4210 nM | 27 nM
CS(=O)(=O)c1ccc(-n2ccc3cnc(Nc4cccc(C(=O)N5CCOCC5)c4)nc32)cc1 [Example 49, {3-[7-(4-Methanesulfonyl-phenyl)-7H-pyrrolo[2,3-d]pyrimidin-2-ylamino]-phenyl}-morpholin-4-yl-methanone] | 878 nM | 14 nM
CN(C)CCNC(=O)c1cccc(Nc2ncc3ccn(-c4ccc(S(C)(=O)=O)cc4)c3n2)c1 [Example 50, N-(2-Dimethylamino-ethyl)-3-[7-(4-methanesulfonyl-phenyl)-7H-pyrrolo[2,3-d]pyrimidin-2-ylamino]-benzamide] | 184 nM | < 3 nM
CS(=O)(=O)c1ccc(-n2ccc3cnc(Nc4ccc(C5CCCN5)cc4)nc32)cc1 (stereo not shown) [Example 53, [7-(4-Methanesulfonyl-phenyl)-7H-pyrrolo[2,3-d]pyrimidin-2-yl]-(4-pyrrolidin-2-yl-phenyl)-amine] | 90.5 nM | < 3 nM
COCc1ccc(Nc2ncc3ccn(-c4ccc(S(C)(=O)=O)cc4)c3n2)cc1 [Example 54, [7-(4-Methanesulfonyl-phenyl)-7H-pyrrolo[2,3-d]pyrimidin-2-yl]-(4-methoxymethyl-phenyl)-amine] | 3110 nM | 4.4 nM
CN1CCN(C(=O)c2ccc(-n3ccc4cnc(Nc5ccc(F)cc5)nc43)cc2)CC1 [Example 56, {4-[2-(4-Fluoro-phenylamino)-pyrrolo[2,3-d]pyrimidin-7-yl]-phenyl}-(4-methyl-piperazin-1-yl)-methanone] | 4680 nM | 32 nM
O=C(c1ccc(-n2ccc3cnc(Nc4ccc(F)cc4)nc32)cc1)N1CCCC1 [Example 57, {4-[2-(4-Fluoro-phenylamino)-pyrrolo[2,3-d]pyrimidin-7-yl]-phenyl}-pyrrolidin-1-yl-methanone] | 772 nM | < 3 nM
CN1CCN(C(=O)c2ccc(-n3ccc4cnc(Nc5ccc(F)cc5)nc43)cc2F)CC1 [Example 58, {2-Fluoro-4-[2-(4-fluoro-phenylamino)-pyrrolo[2,3-d]pyrimidin-7-yl]-phenyl}-(4-methyl-piperazin-1-yl)-methanone] | 5300 nM | 12 nM
O=C(c1ccc(-n2ccc3cnc(Nc4ccc(F)cc4)nc32)cc1F)N1CCOCC1 [Example 59, {2-Fluoro-4-[2-(4-fluoro-phenylamino)-pyrrolo[2,3-d]pyrimidin-7-yl]-phenyl}-morpholin-4-yl-methanone] | 920 nM | 6.5 nM
CC(=O)c1ccc(-n2ccc3cnc(Nc4ccc(F)cc4)nc32)cc1 [Example 60, 1-{4-[2-(4-Fluoro-phenylamino)-pyrrolo[2,3-d]pyrimidin-7-yl]-phenyl}-ethanone] | 4080 nM | 8.1 nM
O=C(c1ccc(-n2ccc3cnc(Nc4ccc(F)cc4)nc32)cc1)N1CCOCC1 [Example 61, {4-[2-(4-Fluoro-phenylamino)-pyrrolo[2,3-d]pyrimidin-7-yl]-phenyl}-morpholin-4-yl-methanone] | 835 nM | 7.1 nM
O=C(NCCN1CCOCC1)c1ccc(-n2ccc3cnc(Nc4ccc(F)cc4)nc32)cc1 [Example 62, 4-[2-(4-Fluoro-phenylamino)-pyrrolo[2,3-d]pyrimidin-7-yl]-N-(2-morpholin-4-yl-ethyl)-benzamide] | 5390 nM | 180 nM
CS(=O)(=O)c1ccc(-n2ccc3cnc(Nc4ccc(CN5CCS(=O)(=O)CC5)cc4)nc32)cc1 [Example 64, [4-(1,1-Dioxido-thiomorpholin-4-ylmethyl)-phenyl]-[7-(4-methanesulfonyl-phenyl)-7H-pyrrolo[2,3-d]pyrimidin-2-yl]-amine] | 40 nM | < 3 nM
CN(C)CCN(C)C(=O)c1ccc(Nc2ncc3ccn(-c4ccc(S(C)(=O)=O)cc4)c3n2)cc1 [Example 65, N-(2-Dimethylamino-ethyl)-4-[7-(4-methanesulfonyl-phenyl)-7H-pyrrolo[2,3-d]pyrimidin-2-ylamino]-N-methyl-benzamide] | 99.5 nM | 5.4 nM
CN(C)C1CCN(C(=O)c2ccc(Nc3ncc4ccn(-c5ccc(S(C)(=O)=O)cc5)c4n3)cc2)CC1 [Example 66, (4-Dimethylamino-piperidin-1-yl)-{4-[7-(4-methanesulfonyl-phenyl)-7H-pyrrolo[2,3-d]pyrimidin-2-ylamino]-phenyl}-methanone] | 75.5 nM | 3.5 nM
CS(=O)(=O)c1ccc(-n2ccc3cnc(Nc4ccc(C(=O)NCCN5CCOCC5)cc4)nc32)cc1 [Example 67, 4-[7-(4-Methanesulfonyl-phenyl)-7H-pyrrolo[2,3-d]pyrimidin-2-ylamino]-N-(2-morpholin-4-yl-ethyl)-benzamide] | 39 nM | < 3 nM
